Consider 1 compound from paper PMC5620277, “The histone methyltransferase EZH2 as a druggable target in SHH medulloblastoma cancer stem cells” (Oncotarget, 2017).

Structures are written as SMILES. Read-outs that look alike come from different tables or passages of the source.

For series [1], the system named is DAOY-SLCs. As to the kind of experiment: Cell death (Trypan blue test) in DAOY-SLCs. Format: cell-based. To be noted: 5 μM, 72 h. The protocol:
Trypan blue exclusion test was used to count viable or death cells present in a cell suspension. Each sample was measured in triplicate and repeated at least three times.

Series [2] concerns the target T1, EZH2/PRC2 (Homo sapiens, UniProt Q15910).
T1 construct: (amino acids 2-end) with N-terminal His tag; His tag (N); host or cells: baculovirus expression system
As to the kind of experiment: EZH2/PRC2 cell free enzymatic assay (3H-SAM, filter-paper detection). Format: biochemical. The procedure: (§1) MC3629 was tested in the cell free enzymatic assay (EZH2/PRC2) in 10-dose IC50 mode with 2-fold serial dilution starting from 400 μM solution, using various histone substrates (histone H3/H4 octamer, histone H3/H4 tetramer, histone H3, and core histone) and SAM as the co-substrate. […] (Figure 2B, and Supplementary Figure 2).
Reagents: Reaction buffer; 50 mM Tris-HCl (pH 8.0), 50 mM NaCl, 1 mM EDTA, 1 mM DTT, 1 mM PMSF, 1% DMSO. Reaction Conditions: EZH2: Complex of human EZH2 (GenBank Accession No. NM_004456), (amino acids 2-end) with N-terminal His tag, MW= 86 kDa, human EED (NM_003797) (a-a 2-end) with N-terminal Flag tag, MW= 51 kDa, human SUZ12 (NM_015355) (a-a 2-end) with N-terminal His tag, MW = 87 kDa, Human AEBP2 (NM_153207) (a-a 2-end) with N-terminal His tag, MW= 53 kDa, and human RbAp48 (NM_005610) (a-a 2-end) with N-terminal His tag, MW = 48 kDa, co-expressed in baculovirus expression system. Substrate: 5 μM histone H3/H4 tetramer. Methyl donor: 1 μM S-adenosyl-L-[methyl-^3H]methionine (^3H-SAM). Enzyme: 100 nM EZH2 complex. Reaction Procedure: the indicated substrate was dissolved in freshly prepared Reaction Buffer; EZH2 was delivered into the substrate solution and mixed gently. The compound was dissolved in DMSO to a stock of 20 mM and was tested in a 10-dose IC50 mode with 2-fold serial dilution starting at 400 μM. The compound was delivered in DMSO into the EZH2 reaction mixture by using Acoustic Technology (Echo 550, LabCyte Inc. Sunnyvale, CA) in nanoliter range, and incubated for 15 min; ^3H-SAM was delivered into the reaction mixture to initiate the reaction; the reaction mixture was incubated for 1 h at 30°C and then delivered to filter-paper for detection; data were analyzed using Excel and GraphPad Prism 5 software for IC50 curve fits. For SAM competition experiments, the same procedure was used with different SAM concentration (1, 2.5. 5, and 10 μM) and H3/H4 octamer as the substrate.

For series [3], the system named is DAOY cells. Put plainly: Cell viability, MTS assay, DAOY cells. Format: cell-based. To be noted: 5 μM, after 48 h. The protocol:
(§2) To evaluate cell viability cells were plated at a density of 5×10^3 cells/well in 96-well plates and were incubated with MTS solution (CellTiter 96® AQueous One Solution Promega).

The target in series [4] is DNMT1 (Homo sapiens, UniProt P26358). Put plainly: Methyltransferase panel: DNMT1. Format: biochemical. The following applies: substrate Poly dI-dC. The protocol: as §1
The appropriate methyltransferase (MT) substrate (0.05 mg/ml core histone for EZH1 complex, 0.05 mg/ml oligonucleosomes for DOT1L, 5 μM histone H3 (1-21) peptide for G9a, 0.05 mg/ml nucleosomes for MLL1 complex, 0.05 mg/ml core histone for SET7/9, 5 μM histone H4 for PRMT1, and 0.001 mg/ml poly(dI-dC) for DNMT1) was added in freshly prepared Reaction Buffer (50 mM Tris-HCl (pH 8.5), 5 mM MgCl2, 50 mM NaCl, 0.01% Brij35, 1 mM DTT, 1% DMSO). The MT enzyme was delivered into the substrate solution and the mixture was mixed gently. Afterwards, the tested compound dissolved in DMSO was delivered into the enzyme/substrate reaction mixture by using Acoustic Technology (Echo 550, LabCyte Inc. Sunnyvale, CA) in nanoliter range, and 1 μM ^3H-SAM was also added into the reaction mixture to initiate the reaction. The reaction mixture was incubated for 1 h at 30°C and then it was delivered to filter-paper for detection. The data were analyzed using Excel and GraphPad Prism software for IC50 curve fits (for EZH1 complex).

The subject of series [5] is H3K27me3 in cerebellum and brain. As to the kind of experiment: H3K27me3 levels in cerebellum and brain of wild type mice after i.p. treatment. Format: in vivo, mouse. The protocol:
CD1 wild-type mice were treated intra-peritoneally with 20 μMoles/Kg of MC3629 (n=8 for each group). Treatment was performed at the age of 8 and 10 days post natal and mice were sacrificed at 12 days post natal. Brain and cerebellum tissues were collected for analysis.

Series [6] concerns mMB-SLCs. As to the kind of experiment: Western Blot of H3K27me3, PCNA, cleaved caspase 3 in mMB-SLCs. The following applies: 48 h. Format: cell-based, mouse. The protocol: Afterwards, we tested the ability of MC3629 (at 0.5, 5, and 25 μM) to inhibit the EZH2 enzymatic activity on a cell-based assay in vitro. The lower significant MC3629 dosage to decrease the H3K27me3 level in MB-SLCs was 5 μM (Figure 2C).
as §2
(§3) Western blots were performed according to standard procedures. Briefly, protein lysates were prepared using RIPA buffer with fresh protease inhibitors. Lysates were separated on SDS polyacrylamide gels. Proteins were transferred on nitrocellulose membrane (0.45 micron) (PerkinElmer). Membranes were blocked for 1 h at room temperature in 5% nonfat dry milk and incubated overnight at 4°C with antibodies against EZH2 (4905S Cell signaling), H3K27me3 (07-449 Millipore), PCNA (2586 Cell signaling), ACTIN (I-19 sc-1616; Santa Cruz Biotechnology), GAPDH (ab9484, Abcam), cleaved CSP-3 (D-175 9661S; Cell Signaling) and H3 (ab1971, Abcam). HRP-conjugated secondary antibodies (Santa Cruz Biotechnology) were used in combination with enhanced chemiluminescence (ECL Amersham).

The subject of series [7] is DAOY cells. As to the kind of experiment: Western Blot of H3K27me3 and PCNA in DAOY cells. Format: cell-based. To be noted: 5 μM, 48 h. The protocol:
as §2, §3

Series [8] concerns neural stem cells (NSC). As to the kind of experiment: Western Blot of H3K27me3 and PCNA in neural stem cells (non-transformed cells). Format: cell-based. The following applies: 5 μM, 48 h. The procedure: as §3

As to `Cc1cc(C)c(CNC(=O)c2cnn(-c3ccccc3)c2C)c(=O)[nH]1` [MC3629, N-((4,6-dimethyl-2-oxo-1,2-dihydropyridin-3-yl)methyl)-5-methyl-1-phenyl-1H-pyrazole-4-carboxamide], the cell death result in series [1] was “induced cell death”. The “mechanism of inhibition, SAM competition experiments” value in series [2] (histone H3/H4 octamer substrate, SAM 1, 2.5, 5, 10 μM) is recorded as “SAM-dependent mechanism of inhibition”. The IC50 is 5.27 µM in series [2] (histone H3/H4 tetramer substrate, value printed in Figure 2B, read-out: IC50, EZH2/PRC2) and 5.27 to 15.4 µM in series [2] (range over histone substrates (histone H3/H4 octamer, H3/H4 tetramer, histone H3, core histone), SAM co-substrate, 10-dose, 2-fold dilution from 400 μM, read-out: IC50 values, EZH2/PRC2). Besides, the cell viability result in series [3] is “impaired cell viability”. The inhibition at 200 µM in series [4] was 0%. Further, the “H3K27me3 levels in brain” value in series [5] (20 μMol/Kg intra-peritoneal) was “reduced levels”. The “H3K27me3 levels in cerebellum” value in series [5] (20 μMol/Kg intra-peritoneal, twice/week) is listed as “significant reduction”. In series [5] (inferred from reduced H3K27me3 in cerebellum and brain, 20 μMol/Kg i.p.), the “ability to cross the BBB in vivo” value is given as “crosses the BBB”. Further, the “H3K27me3 and PCNA protein levels” value in series [6] (mMB-SLCs, 5 μM) is “significantly impaired”; in series [8] it was “did not observe any effects”. Also, the “apoptosis, level of cleaved caspase 3” value in series [6] (mMB-SLCs, 5 μM) is “induced apoptosis”. Moreover, in series [6] (tested at 0.5, 5, 25 μM), the “lower significant dosage to decrease the H3K27me3 level” value turned out to be 5 µM. The “H3K27me3 and PCNA levels” value in series [7] is recorded as “impaired”.
